Where “and” joins values, the source holds several entries; their conditions need not be identical. Equal values may be shown once. Inconclusive results and toxic doses are left out. The calls were made as follows: active = survival T/C of 150% or more; inactive = T/C below 125% in these data. Non-standard residues stand in square brackets, D forms with d. Residues, ends and D or L forms follow the SMILES beside them. ξ: configuration not given here. *: point of attachment. ξF = NC(Cc1ccccc1)C(=O)O; Cbz = O=C(OCc1ccccc1)*
System: CD2F1 mice, L1210 leukemia ip, survival T/C
Assay: NCI In Vivo Anticancer Drug Screen. Data for tumor model L1210 Leukemia (intraperitoneal) in CD2F1 (CDF1) mice
Details: endpoint: mean survival time, higher = longer survival
Procedure, shortened: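 Tumor-bearing mice (transplanted tumor) were split into treated and vehicle control groups, and the measured endpoint of each treated group was divided by that of its vehicle controls.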

[1] = dose: 100.0 mg/kg/injection, schedule: Q01DX009 (ip), vehicle: saline
[2] = dose: 200.0 mg/kg/injection, schedule: Q01DX009 (ip), vehicle: saline
[3] = dose: 400.0 mg/kg/injection, schedule: Q01DX009 (ip), vehicle: saline
[4] = dose: 150.0 mg/kg/injection, schedule: Q01DX001 (ip), vehicle: other
[5] = dose: 300.0 mg/kg/injection, schedule: Q01DX001 (ip), vehicle: other
[6] = dose: 100.0 mg/kg/injection, schedule: Q04DX003 (ip), vehicle: saline with Tween-80
[7] = dose: 200.0 mg/kg/injection, schedule: Q04DX003 (ip), vehicle: saline with Tween-80
[8] = dose: 400.0 mg/kg/injection, schedule: Q04DX003 (ip), vehicle: saline with Tween-80

Measured: T/C

O=S1(=O)CCC2C1C1(Cl)C(Cl)=C(Cl)C2(Cl)C1(Cl)Cl (stereo not given)
inactive: dose: 12.5 mg/kg/injection, schedule: Q01DX009 (ip), vehicle: saline sonified 104 % of control | dose: 12.5 mg/kg/injection, schedule: Q04DX003 (ip), vehicle: saline with Tween-80 103 % of control | dose: 25.0 mg/kg/injection, schedule: Q01DX009 (ip), vehicle: saline sonified 103 % of control | dose: 25.0 mg/kg/injection, schedule: Q04DX003 (ip), vehicle: saline with Tween-80 97 % of control | dose: 50.0 mg/kg/injection, schedule: Q04DX003 (ip), vehicle: saline with Tween-80 98 % of control

Cc1ccc(/C=C2\CC(C)(C)c3ccccc3C2=O)cc1
inactive: [1] 96 % of control | dose: 100.0 mg/kg/injection, schedule: Q04DX003 (ip), vehicle: other 104 % of control | [2] 94 % of control | dose: 200.0 mg/kg/injection, schedule: Q04DX003 (ip), vehicle: other 100 % of control | [3] 94 % of control | dose: 400.0 mg/kg/injection, schedule: Q04DX003 (ip), vehicle: other 105 % of control

CC1=C(/C=C/C(C)=C/C=C/C(C)=C/CO)C(C)(C)CCC1
inactive: dose: 150.0 mg/kg/injection, schedule: Q01DX001 (ip), vehicle: alkali diluted with saline 102 % of control | dose: 150.0 mg/kg/injection, schedule: Q01DX001 (ip), vehicle: distilled water + alcohol 112 % of control | [4] 112 % of control | dose: 150.0 mg/kg/injection, schedule: Q01DX001 (ip), vehicle: saline 102 % of control | dose: 150.0 mg/kg/injection, schedule: Q11HX001 (ip), vehicle: saline 102 % of control | dose: 300.0 mg/kg/injection, schedule: Q01DX001 (ip), vehicle: alkali diluted with saline 99 % of control and 100 % of control | dose: 300.0 mg/kg/injection, schedule: Q01DX001 (ip), vehicle: distilled water + alcohol 108 % of control | [5] 108 % of control | dose: 300.0 mg/kg/injection, schedule: Q01DX001 (ip), vehicle: saline 103 % of control | dose: 300.0 mg/kg/injection, schedule: Q11HX001 (ip), vehicle: saline 103 % of control

S=[As]c1ccccc1 (stereo not given)
inactive: dose: 100.0 mg/kg/injection, schedule: Q01DX001 (ip), vehicle: saline 100 % of control | dose: 200.0 mg/kg/injection, schedule: Q01DX001 (ip), vehicle: saline 97 % of control | dose: 400.0 mg/kg/injection, schedule: Q01DX001 (ip), vehicle: saline 107 % of control

CC1=NNC(C)(C)C1
inactive: dose: 25.0 mg/kg/injection, schedule: Q01DX009 (ip), vehicle: Klucel (hydroxypropylcellulose) (HPC) 96 % of control | dose: 50.0 mg/kg/injection, schedule: Q01DX009 (ip), vehicle: Klucel (hydroxypropylcellulose) (HPC) 97 % of control | dose: 100.0 mg/kg/injection, schedule: Q01DX009 (ip), vehicle: Klucel (hydroxypropylcellulose) (HPC) 92 % of control | [1] 102 % of control | dose: 200.0 mg/kg/injection, schedule: Q01DX009 (ip), vehicle: Klucel (hydroxypropylcellulose) (HPC) 97 % of control | [2] 105 % of control | dose: 400.0 mg/kg/injection, schedule: Q01DX009 (ip), vehicle: Klucel (hydroxypropylcellulose) (HPC) 97 % of control | [3] 103 % of control

O=C(O/N=C(/CBr)c1ccccc1)c1ccccc1
inactive: dose: 75.0 mg/kg/injection, schedule: Q01DX001 (ip), vehicle: other 101 % of control | [4] 97 % of control | [5] 103 % of control

NC(=O)C(Cc1ccccc1)NC(=O)CNC(=O)CNC(=O)OCc1ccccc1 (stereo not drawn) (Cbz-Gly-Gly-[ξF]-NH2)
inactive: [6] 97 % of control | [7] 96 % of control | [8] 99 % of control

COC(=O)c1c[nH]c(=S)n1C(C)c1ccccc1 (stereo not given)
inactive: dose: 100.0 mg/kg/injection, schedule: Q01DX009 (ip), vehicle: saline with Tween-80 105 % of control | [6] 93 % of control | dose: 200.0 mg/kg/injection, schedule: Q01DX009 (ip), vehicle: saline with Tween-80 106 % of control | [7] 95 % of control | [8] 101 % of control

O=c1ccocc1O
inactive: dose: 200.0 mg/kg/injection, schedule: Q04DX002 (ip), vehicle: saline 95 % of control | dose: 400.0 mg/kg/injection, schedule: Q04DX002 (ip), vehicle: saline 92 % of control

Reference: PubChem BioAssay AID256 (DTP/NCI, 2004)
